Measurements from the supplement of paper PMC10307832.

How the values were obtained:
Test in all cases: relative viability (nuclei count vs DMSO), 5 days (fraction); higher = more cells survive
201T = test system: 201T
Method in brief: (§1)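 For relative viability, nuclei counts in treated wells were divided by those in vehicle wells. Lung cancer cell lines had been pin-tool dosed in 1536-well plates the day after seeding and cultured for 5 days, then fixed and stained in one step (final 0.05% Triton X-100, 1% formaldehyde, 1 ug/ml Hoechst) and imaged at 4×. Doses were one drug alone or a fixed anchor-drug dose plus five library-drug doses (not always all listed) in √10 steps, and values are duplicate-plate medians.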

BEN = test system: BEN
Method in brief: as §1

CAL-12T = test system: CAL-12T
Method in brief: as §1

HCC-827 = test system: HCC-827
Method in brief: as §1

LCLC-97TM1 = test system: LCLC-97TM1
Method in brief: as §1

LXF-289 = test system: LXF-289
Method in brief: as §1

NCI-H1395 = test system: NCI-H1395
Method in brief: as §1

NCI-H1437 = test system: NCI-H1437
Method in brief: as §1

NCI-H1650 = test system: NCI-H1650
Method in brief: as §1

NCI-H1792 = test system: NCI-H1792
Method in brief: as §1

NCI-H1793 = test system: NCI-H1793
Method in brief: as §1

NCI-H1944 = test system: NCI-H1944
Method in brief: as §1

NCI-H2087 = test system: NCI-H2087
Method in brief: as §1

NCI-H2228 = test system: NCI-H2228
Method in brief: as §1

NCI-H2405 = test system: NCI-H2405
Method in brief: as §1

NCI-H3122 = test system: NCI-H3122
Method in brief: as §1

NCI-H322M = test system: NCI-H322M
Method in brief: as §1

NCI-H647 = test system: NCI-H647
Method in brief: as §1

NCI-H727 = test system: NCI-H727
Method in brief: as §1

RERF-LC-KJ = test system: RERF-LC-KJ
Method in brief: as §1

SK-LU-1 = test system: SK-LU-1
Method in brief: as §1

`O=c1cc(-c2cccc3c2Sc2ccccc2S3)oc(N2CCOCC2)c1` + CS(=O)(=O)CCNCc1ccc(-c2ccc3ncnc(Nc4ccc(OCc5cccc(F)c5)c(Cl)c4)c3c2)o1 [Lapatinib] (partner 2 µM) was tested, and the relative viability (201T; first compound 0.08 µM) was 1.02, the relative viability (201T; first compound 0.253 µM) was 1.09 and the relative viability (201T; first compound 0.8 µM) was 0.915. The relative viability (201T; first compound 2.53 µM) was 0.951, the relative viability (201T; first compound 8 µM) was 1 and the relative viability (BEN; first compound 0.08 µM) was 0.703. The relative viability (BEN; first compound 0.253 µM) was 0.706, the relative viability (BEN; first compound 0.8 µM) was 0.81 and the relative viability (BEN; first compound 2.53 µM) was 0.734. It also gave a relative viability (BEN; first compound 8 µM) of 1.05, a relative viability (CAL-12T; first compound 0.08 µM) of 0.501 and a relative viability (CAL-12T; first compound 0.253 µM) of 0.646. It also gave a relative viability (CAL-12T; first compound 0.8 µM) of 0.595, a relative viability (CAL-12T; first compound 2.53 µM) of 0.551 and a relative viability (CAL-12T; first compound 8 µM) of 0.564. For the same molecule, the relative viability (HCC-827; first compound 0.08 µM) was 0.189, the relative viability (HCC-827; first compound 0.253 µM) was 0.196 and the relative viability (HCC-827; first compound 0.8 µM) was 0.168. The relative viability (HCC-827; first compound 2.53 µM) was 0.189, the relative viability (HCC-827; first compound 8 µM) was 0.178 and the relative viability (LCLC-97TM1; first compound 0.08 µM) was 0.753. The relative viability (LCLC-97TM1; first compound 0.253 µM) was 0.781, the relative viability (LCLC-97TM1; first compound 0.8 µM) was 1.25 and the relative viability (LCLC-97TM1; first compound 2.53 µM) was 0.685. For the same molecule, the relative viability (LCLC-97TM1; first compound 8 µM) was 1.18, the relative viability (LXF-289; first compound 0.08 µM) was 0.87 and the relative viability (LXF-289; first compound 0.253 µM) was 0.935. For the same molecule, the relative viability (LXF-289; first compound 0.8 µM) was 0.942, the relative viability (LXF-289; first compound 2.53 µM) was 0.856 and the relative viability (LXF-289; first compound 8 µM) was 0.93. It also gave a relative viability (NCI-H1395; first compound 0.08 µM) of 0.971, a relative viability (NCI-H1395; first compound 0.253 µM) of 1.04 and a relative viability (NCI-H1395; first compound 0.8 µM) of 1.02. It also gave a relative viability (NCI-H1395; first compound 2.53 µM) of 1.16, a relative viability (NCI-H1395; first compound 8 µM) of 0.949 and a relative viability (NCI-H1437; first compound 0.08 µM) of 0.782. For the same molecule, the relative viability (NCI-H1437; first compound 0.253 µM) was 1.2, the relative viability (NCI-H1437; first compound 0.8 µM) was 0.817 and the relative viability (NCI-H1437; first compound 2.53 µM) was 0.751. It also gave a relative viability (NCI-H1437; first compound 8 µM) of 1, a relative viability (NCI-H1650; first compound 0.08 µM) of 0.687 and a relative viability (NCI-H1650; first compound 0.253 µM) of 0.917. For the same molecule, the relative viability (NCI-H1650; first compound 0.8 µM) was 0.717, the relative viability (NCI-H1650; first compound 2.53 µM) was 0.84 and the relative viability (NCI-H1650; first compound 8 µM) was 0.847. For the same molecule, the relative viability (NCI-H1792; first compound 0.253 µM) was 1, the relative viability (NCI-H1792; first compound 0.8 µM) was 0.824 and the relative viability (NCI-H1792; first compound 2.53 µM) was 0.83. For the same molecule, the relative viability (NCI-H1792; first compound 8 µM) was 1.58, the relative viability (NCI-H1793; first compound 0.08 µM) was 0.641 and the relative viability (NCI-H1793; first compound 0.253 µM) was 1.16. It also gave a relative viability (NCI-H1793; first compound 0.8 µM) of 0.643, a relative viability (NCI-H1793; first compound 2.53 µM) of 0.837 and a relative viability (NCI-H1793; first compound 8 µM) of 0.752. For the same molecule, the relative viability (NCI-H1944; first compound 0.08 µM) was 0.846, the relative viability (NCI-H1944; first compound 0.253 µM) was 1.07 and the relative viability (NCI-H1944; first compound 0.8 µM) was 0.733. It also gave a relative viability (NCI-H1944; first compound 8 µM) of 0.998, a relative viability (NCI-H2087; first compound 0.08 µM) of 0.981 and a relative viability (NCI-H2087; first compound 0.253 µM) of 0.98. It also gave a relative viability (NCI-H2087; first compound 0.8 µM) of 1.13, a relative viability (NCI-H2087; first compound 2.53 µM) of 0.959 and a relative viability (NCI-H2087; first compound 8 µM) of 1.4. The relative viability (NCI-H2228; first compound 0.08 µM) was 1.02, the relative viability (NCI-H2228; first compound 0.253 µM) was 1.5 and the relative viability (NCI-H2228; first compound 0.8 µM) was 0.912. For the same molecule, the relative viability (NCI-H2228; first compound 2.53 µM) was 0.891, the relative viability (NCI-H2228; first compound 8 µM) was 1.1 and the relative viability (NCI-H2405; first compound 0.08 µM) was 0.928. For the same molecule, the relative viability (NCI-H2405; first compound 0.253 µM) was 1.1, the relative viability (NCI-H2405; first compound 0.8 µM) was 1.02 and the relative viability (NCI-H2405; first compound 2.53 µM) was 0.937. It also gave a relative viability (NCI-H2405; first compound 8 µM) of 1.02, a relative viability (NCI-H3122; first compound 0.08 µM) of 1.03 and a relative viability (NCI-H3122; first compound 0.253 µM) of 1.15. It also gave a relative viability (NCI-H3122; first compound 0.8 µM) of 1, a relative viability (NCI-H3122; first compound 2.53 µM) of 0.96 and a relative viability (NCI-H3122; first compound 8 µM) of 1.02. It also gave a relative viability (NCI-H322M; first compound 0.08 µM) of 0.64, a relative viability (NCI-H322M; first compound 0.253 µM) of 0.768 and a relative viability (NCI-H322M; first compound 0.8 µM) of 0.529. The relative viability (NCI-H322M; first compound 2.53 µM) was 0.564, the relative viability (NCI-H322M; first compound 8 µM) was 0.607 and the relative viability (NCI-H647; first compound 0.08 µM) was 1.19. For the same molecule, the relative viability (NCI-H647; first compound 0.253 µM) was 1.21, the relative viability (NCI-H647; first compound 0.8 µM) was 0.985 and the relative viability (NCI-H647; first compound 2.53 µM) was 0.886. For the same molecule, the relative viability (NCI-H647; first compound 8 µM) was 0.83, the relative viability (NCI-H727; first compound 0.253 µM) was 1.17 and the relative viability (NCI-H727; first compound 2.53 µM) was 0.802. For the same molecule, the relative viability (NCI-H727; first compound 8 µM) was 1.16, the relative viability (RERF-LC-KJ; first compound 0.08 µM) was 0.836 and the relative viability (RERF-LC-KJ; first compound 0.253 µM) was 0.998. It also gave a relative viability (RERF-LC-KJ; first compound 0.8 µM) of 0.876, a relative viability (RERF-LC-KJ; first compound 2.53 µM) of 0.907 and a relative viability (RERF-LC-KJ; first compound 8 µM) of 0.98. For the same molecule, the relative viability (SK-LU-1; first compound 0.08 µM) was 1.02, the relative viability (SK-LU-1; first compound 0.253 µM) was 0.858 and the relative viability (SK-LU-1; first compound 0.8 µM) was 0.968. The relative viability (SK-LU-1; first compound 2.53 µM) was 0.817 and the relative viability (SK-LU-1; first compound 8 µM) was 0.836.
